Assay results as given in US11957680B2, “Pyruvate kinase activators for use in treating blood disorders” (Agios Pharmaceuticals, Inc., priority 2017, dated 2024).

Tests used:
wild type PKR [1] = biological target: T1, wild type PKR (Homo sapiens, UniProt P30613); assay: Cell based ATP assay in purified red blood cells (Cell-Titer-Glo); design: endogenous in cells; host or cells: purified red blood cells from healthy volunteers; details: overnight at 37° C., ATP levels; for EC50: Table 4, AC50, RBCs
Method: Example 16. Red Blood Cell (RBC) Purification
Fresh blood drawn from healthy volunteers into K2EDTA tubes was collected. Whole blood was pelleted by spinning at 500 g for 10 minutes. Cut transfusion bag port off of Purecell leukocyte reduction neofilter (Fisher NC0267633) one (1) inch above filter. Attach a 10 ml syringe barrel to the remaining cut tubing attached to neofilter. The plasma layer was removed from the pellet of the whole blood and the pellet was resuspended in 2× volume of phosphate buffered saline (PBS). Transfer 9 ml re-suspended blood cell pellet to prepared 10 ml syringe that is attached to the neofilter. Allow whole blood to gravity flow through filter until all fluid runs through upper tubing into filter disc. Add plunger to the syringe, remove syringe from clamp and invert the filter, then plunge air through the syringe filter system. Using a new 5 ml syringe, remove filtered RBCs from the bag by the syringe port and transfer purified RBCs to a 5 ml snap cap tube that has been incubated on ice. Spin 5 ml snap cap tube at 500 g for 10 minutes at 15 C, aspirate supernatant and resuspend in AGAM (1×PBS, 1% glucose, 170 mg/L adenine, 5.25 g/L mannitol) at a density of 4×10^9 cells/mL.
Example 17. Cell Based ATP Assay
For cell based ATP assays, the compound as described herein was prepared in 100% DMSO as a 10 mM stock. Serial dilutions (1:4) were performed in 96-well V-bottom storage plate and then added 1:100 to 96-well V-bottom plates containing AGAM. RBCs were diluted in AGAM media to a density of 1×10^7 cells/mL before added 90 μL/well to black clear bottom assay plates (final compound concentration at 0.1% DMSO concentration). Assay plates were sealed using aluminum foil seals and incubated overnight at 37° C. in a humidified chamber. ATP levels were read out using Cell-Titer-Glo (Promega).

PKR K410E = PKR K410E (Homo sapiens, UniProt P30613, K410E); assay: PKR mutant assay (K410E), AC50, LDH/NADH-coupled, absorbance at 340 nm; format: biochemical; details: for AC50: Table 2, enzyme assay; for EC50: Table 4, AC50, enzyme assay
Method: (§1) Example 11. PKR Mutant Assay
(§2) PKR or PKR mutant enzyme solution was diluted into a reaction mix, which contains 1× buffer (100 mM KCl, 50 mM Tris pH 7.5, 5 mM MgCl2) as well as PEP (conc depends on enzyme), 180 μM NADH, 0.5 units LDH, 1 mM DTT, 0.03% BSA; final assay concentrations after 1.11 fold dilution are indicated.
(§3) 2 μL of test compound was added into wells first, and then 180 μL reaction mix was added.
(§4) Reactions mixture with test compound was assembled except for ADP, and plates were stored for 60 minutes at room temperature.
(§5) 20 uL ADP was added to start reaction at room temperature and reaction progress was measured as changes in absorbance at 340 nm wavelength at room temperature.
(§6) Test Compound Preparation:
(§7) Test compound stock was made at 100× concentration in 100% DMSO (10 mM)
(§8) 1 to 3 dilutions were made for 11 points (i.e. 50 μl of first concentration added to 100 μl 100% DMSO to yield 3.33 mM, 50 μl of this added to 100 μl DMSO to yield 1.11 mM, and so forth) • 1 to 100 dilution into assay (2 μl in 200 μl) yielded starting concentration of 100 μM, decreasing 3 fold for 11 points.
(§9) Assay Buffer: 100 mM KCl, 50 mM Tris 7.5, 5 mM MgCl2, 1 mM DTT, 0.03% BSA
(§10) Reaction Mixture: PKR mutant enzyme: 40-400 ng/well; ADP: 0.2-1.65 mM; PEP: 0.1-0.5 mM; NADH: 180 μM; LDH: 0.5 units (Sigma #59023); DTT: 1 mM; BSA: 0.03%.

PKR R510Q = PKR R510Q (Homo sapiens, UniProt P30613, R510Q); assay: PKR mutant assay (R510Q), AC50, LDH/NADH-coupled, absorbance at 340 nm; format: biochemical; details: for AC50: Table 2, enzyme assay, read-out: PK R510Q AC50; for EC50: Table 4, AC50, enzyme assay, read-out: PK R510Q
Method: as §1, §2, §3, §4, §5, §6, §7, §8, §9, §10

wild type PKR [2] = biological target: T1, wild type PKR; assay: PKR (wild type) enzyme AC50 assay, LDH/NADH-coupled, absorbance at 340 nm; format: biochemical; details: for AC50: read-out: PKR WT AC50; for EC50: Table 4, AC50, enzyme assay, read-out: PKR WT
Method: as §1, §2, §3, §4, §5, §6, §7, §8, §9, §10

T1 sequence (P30613 whole entry): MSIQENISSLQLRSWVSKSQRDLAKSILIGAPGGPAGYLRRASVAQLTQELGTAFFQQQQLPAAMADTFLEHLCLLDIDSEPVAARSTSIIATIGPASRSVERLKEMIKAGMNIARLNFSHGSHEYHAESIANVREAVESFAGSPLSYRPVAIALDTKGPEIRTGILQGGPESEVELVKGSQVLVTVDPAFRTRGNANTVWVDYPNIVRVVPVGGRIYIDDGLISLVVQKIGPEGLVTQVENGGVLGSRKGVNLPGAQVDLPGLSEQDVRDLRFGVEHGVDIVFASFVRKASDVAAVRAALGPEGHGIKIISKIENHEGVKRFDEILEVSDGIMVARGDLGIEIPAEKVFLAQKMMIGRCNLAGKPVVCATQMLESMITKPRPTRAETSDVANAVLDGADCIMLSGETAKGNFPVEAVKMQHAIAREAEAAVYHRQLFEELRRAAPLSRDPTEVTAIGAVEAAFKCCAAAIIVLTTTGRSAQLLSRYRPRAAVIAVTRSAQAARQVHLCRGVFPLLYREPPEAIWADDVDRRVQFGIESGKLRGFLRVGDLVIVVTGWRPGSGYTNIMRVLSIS
PKR R510Q, sequence (P30613 whole entry R510Q): as the sequence (P30613 whole entry) above, with R510Q counted along it
PKR K410E, sequence (P30613 whole entry K410E): as the sequence (P30613 whole entry) above, with K410E counted along it

Row | Structure (SMILES) | AC50 (wild type PKR [1]; Table 2, RBCs) | AC50 (PKR K410E) | AC50 (PKR R510Q) | AC50 (wild type PKR [2]; Table 2, enzyme assay) | EC50 (wild type PKR [1]) | EC50 (PKR K410E) | EC50 (PKR R510Q) | EC50 (wild type PKR [2]) | Cell based ATP assay AC50 (wild type PKR [1]; Table 2, RBCs) | PKR WT AC50 (wild type PKR [2]; Table 2, enzyme assay)
1 | CC(c1ccccc1)c1nc2c(s1)c1cnn(Cc3cccc4[nH]ncc34)c(=O)c1n2C (stereo not drawn) [Compound 119] | ≤ 1000 nM | < 300 nM | < 300 nM | < 300 nM | – | – | – | – | – | –
2 | Cn1c2nc(Cc3ccc4cn[nH]c4c3)sc2c2cnn(Cc3cccc4[nH]ncc34)c(=O)c21 [Compound 156] | ≤ 1000 nM | < 300 nM | < 300 nM | 301 to 800 nM | – | – | – | – | – | –
3 | Cn1c2nc(Oc3ccn[nH]3)sc2c2cnn(Cc3cccc(N)n3)c(=O)c21 [Compound 396] | – | – | – | – | ≤ 1000 nM | < 300 nM | < 300 nM | < 300 nM | – | –
4 | COc1cccc(Cn2ncc3c4sc(S(=O)(=O)c5ccccc5)nc4n(C)c3c2=O)c1 [Compound 36] | > 1000 nM | 301 to 800 nM | 301 to 800 nM | > 800 nM | – | – | – | – | – | –
5 | Cn1c2nc(Cc3cc[nH]n3)sc2c2cnn(Cc3cccc(C(N)=O)c3)c(=O)c21 [Compound 183] | ≤ 1000 nM | < 300 nM | < 300 nM | < 300 nM | – | – | – | – | – | –
6 | Cn1c2nc(Cc3ccccn3)sc2c2cnn(Cc3ccccc3)c(=O)c21 [Compound 263] | – | – | – | – | ≤ 1000 nM | < 300 nM | < 300 nM | < 300 nM | – | –
7 | Cn1c2nc(Cc3cc[nH]n3)sc2c2cnn(Cc3ccc4oc(=O)[nH]c4n3)c(=O)c21 [Compound 386] | – | – | – | – | ≤ 1000 nM | < 300 nM | < 300 nM | < 300 nM | – | –
8 | Cn1c2nc([S+](C)[O-])sc2c2cnn(Cc3ccc4ccccc4n3)c(=O)c21 (stereo not drawn) [Compound 102] | ≤ 1000 nM | < 300 nM | < 300 nM | < 300 nM | – | – | – | – | – | –
9 | Cn1c2nc(Cc3cc[nH]c(=O)c3)sc2c2cnn(Cc3cccc4[nH]ncc34)c(=O)c21 [Compound 200] | – | – | – | – | ≤ 1000 nM | < 300 nM | > 800 nM | < 300 nM | – | –
10 | Cn1c2nc(C(O)c3ccccn3)sc2c2cnn(Cc3cccc4[nH]ncc34)c(=O)c21 (stereo not drawn) [Compound 130] | ≤ 1000 nM | > 800 nM | 301 to 800 nM | > 800 nM | – | – | – | – | – | –
11 | COc1cccc(Cn2ncc3c4sc(C(F)(F)F)nc4n(C)c3c2=O)c1 [Compound 53] | > 1000 nM | < 300 nM | < 300 nM | < 300 nM | – | – | – | – | – | –
12 | Cn1c2nc(Cc3ccc4[nH]ncc4c3)sc2c2cnn(Cc3cccc4[nH]ncc34)c(=O)c21 [Compound 154] | ≤ 1000 nM | < 300 nM | < 300 nM | < 300 nM | – | – | – | – | – | –
13 | Cn1ccc(CCn2ncc3c4sc(Cc5cc[nH]n5)nc4n(C)c3c2=O)n1 [Compound 392] | – | – | – | – | ≤ 1000 nM | < 300 nM | < 300 nM | < 300 nM | – | –
14 | COc1cccc(Cn2ncc3c4sc(I)nc4n(C)c3c2=O)c1 [Compound 40] | > 1000 nM | 301 to 800 nM | < 300 nM | 301 to 800 nM | – | – | – | – | – | –
15 | C=Cc1nc2c(s1)c1cnn(Cc3cccc4[nH]ncc34)c(=O)c1n2C [Compound 104] | > 1000 nM | > 800 nM | < 300 nM | < 300 nM | – | – | – | – | – | –
16 | CSc1nc2c(s1)c1cnn(Cc3cn4cccnc4n3)c(=O)c1n2C [Compound 107] | – | > 800 nM | > 800 nM | – | – | – | – | – | No Fit | No Fit
17 | Cn1c2nc(C(N)=O)sc2c2cnn(Cc3cccc(N)n3)c(=O)c21 [Compound 158] | ≤ 1000 nM | < 300 nM | < 300 nM | < 300 nM | – | – | – | – | – | –
18 | Cn1c2nc(Cc3cc[nH]n3)sc2c2cnn(Cc3n[nH]c4ncccc34)c(=O)c21 [Compound 374] | – | – | – | – | ≤ 1000 nM | < 300 nM | < 300 nM | < 300 nM | – | –
